Test results: patent publication US7244741B2, “Fredericamycin derivatives as medicaments for treating tumours” (Biofrontera Discovery GmbH, priority 2002, dated 2007)

Tested on: 12 cancer cell lines: LCL (H460/lung), MACL (MCF7, breast), LXFL (529L, lung), LXFA (629L, lung), MEXF (462NL, melanoma), MEXF (514L, melanoma), MAXF (401NL …)
Assay: Biological activity against 12 cancer cell lines (IC70 averaged over all cell lines)
Assay type: cell-based
Conditions: mean over 12 cancer cell lines; 5 test concentrations
Experimental: Biological Activity Against 12 Cancer Cell Lines: LCL (H460/lung), MACL (MCF7, breast), LXFL ([…], lung), LXFA ([…], lung), MEXF (462NL, melanoma), MEXF ([…], melanoma), MAXF (401NL, breast), RXF ([…], renal), RXF ([…], renal), UXF ([…], uterus), […]1). Efficacy (IC70), averaged over all cell lines in μg/ml with 5 test concentrations.

COc1cccc2c1C(=O)c1c(O)c3c(c(O)c1C2=O)C[C@@](O)(C(=O)CO)C[C@@H]3O[C@H]1C[C@H](N)[C@H](O)[C@H](C)O1 [Adriamycin]
Efficacy (IC70), averaged over all cell lines: 0.0210 µg/mL

N.N.[Cl][Pt][Cl] [Cisplatin]
Efficacy (IC70), averaged over all cell lines: 37.1020 µg/mL

C/C=C/C=C/c1cc2cc3c(c(O)c2c(=O)[nH]1)C1(CC3)C(=O)c2c(O)c3c(c(O)c2C1=O)C(=O)C(OC)=CC3=O (stereo not shown) [Fredericamycin]
Efficacy (IC70), averaged over all cell lines: 0.2790 µg/mL

C/C=C/C=C/c1cc2cc3c(c(O)c2c(=O)[nH]1)[C@@]1(C(=O)c2c(O)c4c(c(O)c2C1=O)C(=O)C(OC)=CC4=O)C(SCCO)C3 (stereo partly drawn) [Example 3, (8S)-4′,9,9′-trihydroxy-6′-methoxy-7(2-hydroxyethylmercapto)-3-[(1E,3E)-penta-1,3-dienyl]-6,7-dihydrospiro[cyclopenta[g]isoquinoline-8,2′-cyclopenta[b]-napthalene]-1,1′-3′,5′,8′(2H)-pentone]
Efficacy (IC70), averaged over all cell lines: 0.1340 µg/mL
